Assay results published in patent publication US12503455B2, “Nucleic acid-binding photoprobes and uses thereof” (Arrakis Therapeutics, Inc., priority 2017, dated 2025).

Experiments:
Format in all cases: binding
[1] = tested on: Aptamer 21; test: Capture of Aptamer 21 with click-biotinylated probes; conditions: Aptamer 21 or Aptamer 21-E
Experimental: A 50 μL sample of 1 μM folded Aptamer 21 or Aptamer 21-E solution in folding buffer (20 mM TrisHCl pH 8, 100 mM KCl, 3 mM MgCl2) was added to a 0.5 μL aliquot of 0.5 mM ARK-729, ARK-2058, ARK-816, or ARK-2059 in DMSO or a DMSO-only control. The solution was incubated at 37° C. for 1 h and then irradiated with long wave UV light (˜365 nm) for 30 min in a UV crosslinker (Fisher Scientific). To this solution was added 0.5 μL of 10 mM DBCO-biotin (Click Chemistry Tools, cat. #A105) and 2 μL of 0.5 M EDTA pH 8 and then the solution was incubated at 65° C. for 2 h. The RNA was ethanol precipitated by adding 35 μL of water, 2 uL of 5 mg/mL glycogen, 10 μL 3 M NaOAc pH 5, and 250 μL ethanol, incubating at −80° C. for 1 h, centrifuging at 20000×g for 30 min, washing the pellet twice with 500 μL of 70% ethanol, and then air drying the pellet.
The RNA pellet was redissolved in 50 μL of 1× bind/wash buffer (20 mM TrisHCl pH 7, 100 mM KCl, 0.1% Tween-20). A 50 μL aliquot of MyOne Streptavidin C1 Dynabead slurry (Thermo) was captured on a magnet, washed twice with 50 μL of 1× bind/wash buffer, and then resuspended in 50 μL of the crosslinked RNA sample. The bead suspension was rotated at room temperature for 30 min and then washed twice with 100 μL of 1× bind/wash solution. […]

[2] = tested on: Aptamer 21; test: LC-MS analysis of cross-linked RNA
Experimental: (§1) Folded RNA (1.33 μM) was incubated with or without the photoaffinity probe (20 μM) in total 100 μL of buffer (20 mM TrisHCl pH 8, 100 mM KCl, 3 mM MgCl2) with 2% DMSO for 30 min at 37° C. to allow binding to come to equilibrium. The sample was then irradiated with long wave UV light (˜365 nm) for 30 min in a UV crosslinker (Fisher Scientific).
The RNA was then precipitated by adding 10 μL of 3 M sodium acetate pH 5 and 275 μL ethanol, cooling to −80° C. for 1 h, and then centrifuging at 20,500×g at 4° C. for 30 min. The RNA pellet was washed with 500 μL of 70% ethanol, air dried for 5 min, and then resuspended in 120 μL of water.
50 μL of RNA sample was injected onto Clarity 2.6 μm Oligo X-T column (50*2.1 mm, 60° C.), and the gradient and flowrate were as follows: 95% A/5% B to 75% A/25% B over 5 min, flowrate: 400 μL/min; 75% A/25% B to 30% A/70% B over 1 min, flowrate: 400 μL/min; 100% D over 1 min, flowrate: 500 μL/min; 95% A/5% B over 2 min, flowrate: 500 μL/min (A: 1% HFIPA (hexafluoroisopropyl alcohol), 0.1% DIEA (diisopropylethylamine), 1 μM EDTA (ethylenediamine tetraacetic acid) in H2O; B: 0.075% HFIPA, 0.0375% DIEA, 1 μM EDTA in 65/35 MeCN/H2O; D: 40/40/20% MeOH/MeCN/H2O); The LCMS instrument was a Thermo Finnigan LTQ, and ProMass deconvolution software coupled with Xcaliber were used for all data processing.

[3] = tested on: Aptamer 21-E; test: Photo-crosslinking of ARK-547 with negative control Aptamer 21-E
Experimental: A 9.5 μL sample of folded RNA (2.6 μM) in buffer (20 mM TrisHCl pH 8, 100 mM KCl, 3 mM MgCl2) was added to a 0.5 μL aliquot of 1 mM ARK-547 in DMSO. The reaction was incubated for 10 min at 37° C., irradiated with long wave UV light (˜365 nm) for 30 min in a UV crosslinker (Fisher Scientific), and then kept on ice.
The samples of cross-linked RNA were diluted to a final volume of 20 μL and final reaction conditions of 1×T4 RNA ligase buffer (New England Biolabs), 5 U/μL T4 RNA ligase 2, truncated KQ (New England Biolabs), 16.5% PEG-8000, and 0.5 μM universal miRNA cloning linker (New England Biolabs). The reaction was incubated in a thermal cycler for 2.5 h cycling between 5 min at 16° C. and 3 min at 25° C. The RNA was then purified using Agencourt AMPure XP beads (Beckman Coulter) using the standard protocol from the manufacturer. […]
To remove excess primer, the sample was mixed with 4.5 μL of ExoSAP-IT, incubated at 37° C. for 15 min, and then quenched with 1 μL of 0.5 M EDTA pH 8. […] The concentration was determined by absorbance at 260 nm. […]
The concentrations of different PCR products were measured using the Denovix dsDNA fluorescence quantitation kit (Denovix) and multiplexed at equal concentrations with a 20% PhiX spike-in. Sequencing was performed on an Illumina MiSeq with 150 bp paired-end reads using the standard manufacturer protocol.

[4] = tested on: Aptamer 21; test: Reverse transcriptase pausing (drop-off) gel assay of photo-crosslinking to Aptamer 21
Experimental: A solution of RNA at 2 to 5 μM in nuclease-free water was heated to 95° C. for 3 min and then cooled on ice for 2 min. This solution was diluted with ½ volume of 3×RNA folding buffer (60 mM TrisHCl pH 8, 300 mM KCl, 9 mM MgCl2) and incubated at 37° C. for 20 min. Folding was carried out immediately before use of the RNA in each experiment. In cases where a mixture of RNA molecules was used in vitro the RNAs were folded separately and then combined prior to the probing experiment.
as §1, with “RNA (1” for “RNA (1.33”, “with” for “with or without”, “probe (10” for “probe (20”, “total 25” for “total 100”, “with 2.5%” for “with 2%”
A 3.75 μL aliquot of 10 μM reverse transcription primer was added to the cross-linked RNA sample, which was then incubated for 5 min at 65° C. and then cooled on ice. The sample was then diluted to a final volume of 60 μL and final buffer concentration of 1× Protoscript-II buffer (New England Biolabs), 0.5 mM dNTPs, 10 mM DTT, 0.4 U/μL RNase Inhibitor (New England Biolabs), and 10 U/μL Protoscript-II (New England Biolabs). The reaction was incubated at 45° C. for 2 h, 65° C. for 20 min, and then 4° C.
The RNA was hydrolyzed by the addition of 4.8 μL of 2.5 M NaOH and heating at 95° C. for 5 min. The reaction was quenched by the addition of 0.9 μL of acetic acid. The cDNA was precipitated by the addition of 6.6 μL of 3 M sodium acetate pH 5 and 181 μL ethanol, cooling to −80° C. for 1 h, and then centrifuging at 20,500×g at 4° C. for 30 min. The cDNA pellet was washed twice with 500 μL of 70% ethanol and then air dried for 5 min.
The cDNA pellet was resuspended in 12 μL of 1×TBE-urea sample loading buffer (Bio-Rad) and heated to 95° C. for 5 min. The sample was then run on a pre-cast 8.6×6.7 cm TBE-urea 10% PAGE gel (Bio-Rad) at 120 V until the lower bromophenol blue dye reached the bottom of the gel. The gel was stained with 1×SYBR-gold (Invitrogen) in 1×TBE buffer at room temperature for 20 min covered from light. The gel fluorescence was imaged on an Azure c600 instrument.

| SMILES | RT pausing peaks after click-biotinylation and avidin bead enrichment [1] | covalent modification of the RNA by LC-MS [2] [%] | binding to negative control Aptamer 21-E [3] | photoadduct with Aptamer 21-E [3] | cross-linking with Apt21 RNA (RT pausing) ([4]; 1 uM RNA, 10 uM probe (9 uM PreQ1 probe), UV ~360 nm) | shortened sequences produced in PEARL-seq reverse transcriptase pausing gel assay ([4]; FIG. 52) |
| --- | --- | --- | --- | --- | --- | --- |
| COC(=O)C1=C(COCc2cn(CCOCCOCCNC(=O)c3cc(CN=[N+]=[N-])cc(N=[N+]=[N-])c3)nn2)NC(c2ccncc2)=NC1c1ccc(F)cc1Cl (stereo not drawn) [ARK-729] | RT pausing peaks specific to Aptamer 21 | – | – | – | – | – |
| COC(=O)C1=C(COCc2cn(CCOCCOCCNC(=O)CCC3(C)N=N3)nn2)NC(c2ccncc2)=NC1c1ccc(F)cc1Cl (stereo not drawn) [ARK-547] | – | 5 | does not bind | no photoadduct | specific and UV-dependent cross-linking | shortened sequences of particular lengths |
